These results are taken from patent US20150337013A1, “NOVEL ANTIBACTERIAL AGENTS FOR THE TREATMENT OF GRAM POSITIVE INFECTIONS” (priority 2008, published 2015).

For assay [1], the system named is gram positive bacteria. In words: Antimicrobial activity against a panel of organisms, summary statements. To be noted: statement in words. The assay is classed as cell-based. As to the method:
(§1) Compounds according to Formula I were tested for antimicrobial activity against a panel of organisms. Aerobic organisms, Staphylococcus aureus, Enterococcus faecalis and E. faecium, were tested by broth microdilution according to Clinical and Laboratory Standards Institute (CLSI) document M7-A7 (Clinical and Laboratory Standards Institute. Methods for Dilution Antimicrobial Susceptibility Tests for Bacteria that Grow Aerobically; Approved Standard—Seventh Edition. CLSI document M7-A7 [ISBN 1-56238-587-9]. Clinical and Laboratory Standards Institute, 940 West Valley Road, Suite 1400, Wayne, Pa. 19087-1898 USA, 2006) with modifications as described below. Mueller Hinton Broth (MHBc) was supplemented with 50 mg/L calcium (equivalent to human physiological levels of calcium) and assay plates were incubated 18-20 hours at 37° C. with aeration (200 rpm).
(§2) In all cases the final concentration of dimethyl sulfoxide incubated with cells is less than or equal to 1%. For minimum inhibitory concentration (MIC) calculations, 2-fold dilutions of compounds were added to wells of a microtiter plate containing 5×10^5 bacteria in a final volume of 100 μL of media. Following incubation, (18-20 hours at 37° C. with aeration at 200 rpm) growth was confirmed visually by placing plates over a viewing apparatus (stand with a mirror underneath) and then the optical density (OD600) was measured using a SpectraMax 340PC^384 plate reader. Growth was defined as turbidity that could be detected with the naked eye or achieving minimum OD600of 0.1. MIC values (in μg/mL) were defined as the lowest concentration producing no visible turbidity.

Assay [2] deals with daptomycin resistant Staph. aureus (DRSA), daptomycin resistant E. faecium (DREfm) and daptomycin resistance E. faecalis (DREfs). In words: Activity against daptomycin resistant bacteria, summary statement. The assay is classed as cell-based. The following applies: statement in words. As to the method: as §1, §2
Assay [3] has as its system Clostridium difficile.
The subject of assay [4] is C. difficile spores (ATCC #43596). In words: Hamster C. difficile infection (CDAD) protection model. The following applies: oral 0.5 mg/kg once daily for 5 days (MET 70 mg/kg three times daily for 5 days). Format: in vivo, Syrian golden hamsters. As for the experimental part: Syrian golden hamsters were pretreated with 10 mg/kg clindamycin subcutaneously 24 hours before bacterial challenge. An inoculum of 20 C. difficile spores (ATCC #43596) in sterile saline was administered orally. Treatment was initiated 4 hours post-inoculation with dH2O, metronidazole (MET), vancomycin (VAN), or a compound of the present invention. Oral dosing regimens for VAN and compounds of Formula I were 0.5 mg/kg once daily for 5 days. MET was administered at 70 mg/kg three times daily for 5 days. CDAD was confirmed as the cause of death by observations at necropsy, including wet tail and/or macroscopic cecal alterations. The % protection provided by each therapy tested was calculated at 1 and 21 days post-dosing.

Assay [5] concerns Enterococcus faecalis EFS.201 (ATCC 49452). Format: cell-based. Summed up:
(§3)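 MIC in μg/mL, taken as the lowest compound concentration producing no visible turbidity after 18-20 hours at 37° C with shaking at 200 rpm. Organisms were grown in calcium-supplemented (50 mg/L) Mueller Hinton broth at 5×10^5 bacteria per well.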

Assay [6] relates to Staphylococcus aureus SAU.399 (ATCC 43300), Methicillin and Oxacillin Resistant. The assay is classed as cell-based. To be noted: MHBc with 50 mg/L calcium, 18-20 hours at 37° C. The procedure, abridged:
as §3

Assay [7] has as its system Enterococcus faecium EFM.384, Daptomycin resistant mutant (14-A). The assay is classed as cell-based. To be noted: MHBc with 50 mg/L calcium, 18-20 hours at 37° C. The procedure, abridged:
as §3

Assay [8] relates to Staphylococcus aureus SAU.42 (ATCC 29213). Format: cell-based. Summed up: as §3
For assay [9], the system named is Enterococcus faecalis EFS.312, Daptomycin resistant mutant (EFA). The assay is classed as cell-based. The following applies: MHBc with 50 mg/L calcium, 18-20 hours at 37° C. The procedure, abridged: as §3
The subject of assay [10] is Staphylococcus aureus SAU.278, Daptomycin resistant mutant (D10). Format: cell-based. The following applies: MHBc with 50 mg/L calcium, 18-20 hours at 37° C. Summed up:
as §3

Assay [11] concerns Enterococcus faecium EFM.14 (ATCC 6569). The assay is classed as cell-based. The following applies: MHBc with 50 mg/L calcium, 18-20 hours at 37° C. The procedure, abridged:
as §3

In assay [12] the test system is NAP1 Clostridium difficile strain.
Setting [13] is: MHBc with 50 mg/L calcium, 18-20 hours at 37° C.

Values joined by “and” are separate entries in the source; they are usually repeats but may differ in a detail not shown here. Identical values can stand only once. Like-named read-outs stand apart in the source and are kept apart here.

For `CCCCCC12CCC(C(=O)N[C@@H](Cc3c[nH]c4ccccc34)C(=O)N[C@H](CC(N)=O)C(=O)N[C@@H](CC(=O)O)C(=O)N[C@@H]3C(=O)NCC(=O)N[C@@H](CCCN)C(=O)N[C@@H](CC(=O)O)C(=O)N[C@H](C)C(=O)N[C@@H](CC(=O)O)C(=O)NCC(=O)N[C@H](CO)C(=O)N[C@@H]([C@H](C)CC(=O)O)C(=O)N[C@@H](CC(=O)c4ccccc4N)C(=O)O[C@@H]3C)(CC1)CC2` [Compound 22, N-(4-pentylbicyclo[2.2.2]octane-1-carbonyl)-L-tryptophyl-D-asparaginyl-L-α-aspartyl-L-threonylglycyl-L-ornithyl-L-α-aspartyl-D-alanyl-L-α-aspartylglycyl-D-seryl-(3R)-3-methyl-L-α-glutamyl-(αS)-α,2-diamino-γ-oxobenzenebutanoic acid (13→4)-lactone], in [1], the “as active or more active than daptomycin” value is “as active or more active than daptomycin”. The “useful against daptomycin resistant strains of bacteria” value (from here on “useful”) in [2] is “useful against daptomycin resistant strains of bacteria”. Also, the “C. diff MIC90” value in [3] was found to be 1 µg/mL. Moreover, in [4], the “Mean % Protection 1 Day Post Dosing” value was found to be 85% and the “Mean % Protection 21 Days Post Dosing” value was 38%.

Regarding `CCCCCCCc1ccc(C(=O)N[C@@H](Cc2c[nH]c3ccccc23)C(=O)N[C@H](CC(N)=O)C(=O)N[C@@H](CC(=O)O)C(=O)N[C@@H]2C(=O)NCC(=O)N[C@@H](CCCN)C(=O)N[C@@H](CC(=O)O)C(=O)N[C@H](C)C(=O)N[C@@H](CC(=O)O)C(=O)NCC(=O)N[C@H](CO)C(=O)N[C@@H]([C@H](C)CC(=O)O)C(=O)N[C@@H](CC(=O)c3ccccc3N)C(=O)O[C@@H]2C)cc1` [Compound 33, N-(4-heptylbenzoyl)-L-tryptophyl-D-asparaginyl-L-α-aspartyl-L-threonylglycyl-L-ornithyl-L-α-aspartyl-D-alanyl-L-α-aspartylglycyl-D-seryl-(3R)-3-methyl-L-α-glutamyl-(αS)-α,2-diamino-γ-oxobenzenebutanoic acid (13→4)-lactone], in assay [1], the “as active or more active than daptomycin” value is on record as “as active or more active than daptomycin” and the “more active against bacteria than daptomycin” value is “more effective than daptomycin”. In assay [2], the “useful” value was “useful against daptomycin resistant strains of bacteria”. For the same molecule, the “Efs201 MIC” value in [5] (ATCC 49452) was 0.5 µg/mL. The “Sa399 MIC” value in assay [6] was found to be 0.125 µg/mL. Moreover, the “Efm384 MIC” value in [7] is 4 µg/mL and 2 µg/mL. In addition, in [8] (ATCC 29213), the “Sa42 MIC” value was 0.25 µg/mL. Also, in [4], the “Mean % Protection 1 Day Post Dosing” value is 85% and the “Mean % Protection 21 Days Post Dosing” value is recorded as 69%.

Take `CCCCCCCCc1ccc(C(=O)N[C@@H](Cc2c[nH]c3ccccc23)C(=O)N[C@H](CC(N)=O)C(=O)N[C@@H](CC(=O)O)C(=O)N[C@@H]2C(=O)NCC(=O)N[C@@H](CCCN)C(=O)N[C@@H](CC(=O)O)C(=O)N[C@H](C)C(=O)N[C@@H](CC(=O)O)C(=O)NCC(=O)N[C@H](CO)C(=O)N[C@@H]([C@H](C)CC(=O)O)C(=O)N[C@@H](CC(=O)c3ccccc3N)C(=O)O[C@@H]2C)cc1` [Compound 34, N-(4-octylbenzoyl)-L-tryptophyl-D-asparaginyl-L-α-aspartyl-L-threonylglycyl-L-ornithyl-L-α-aspartyl-D-alanyl-L-α-aspartylglycyl-D-seryl-(3R)-3-methyl-L-α-glutamyl-(αS)-α,2-diamino-γ-oxobenzenebutanoic acid (13→4)-lactone]: in assay [1], the “as active or more active than daptomycin” value is reported as “as active or more active than daptomycin” and the “more active against bacteria than daptomycin” value is listed as “more effective than daptomycin”. Moreover, in assay [2], the “useful” value is recorded as “useful against daptomycin resistant strains of bacteria”. Moreover, the “C. diff MIC90” value in [3] is 1 µg/mL. Also, the “Efm384 MIC” value in assay [7] is 2 µg/mL and 4 µg/mL. Moreover, in [9], the “Efs312 MIC” value was 4 µg/mL and 8 µg/mL. Besides, in assay [4], the “Mean % Protection 1 Day Post Dosing” value is on record as 85% and the “Mean % Protection 21 Days Post Dosing” value was 38%.

For the molecule `CCCCCCCCCCOc1ccc(C(=O)N[C@@H](Cc2c[nH]c3ccccc23)C(=O)N[C@H](CC(N)=O)C(=O)N[C@@H](CC(=O)O)C(=O)N[C@@H]2C(=O)NCC(=O)N[C@@H](CCCN)C(=O)N[C@@H](CC(=O)O)C(=O)N[C@H](C)C(=O)N[C@@H](CC(=O)O)C(=O)NCC(=O)N[C@H](CO)C(=O)N[C@@H]([C@H](C)CC(=O)O)C(=O)N[C@@H](CC(=O)c3ccccc3N)C(=O)O[C@@H]2C)cc1` [Compound 38], in assay [1], the “as active or more active than daptomycin” value was “as active or more active than daptomycin” and the “more active against bacteria than daptomycin” value is “more effective than daptomycin”. Also, the “useful” value in assay [2] is reported as “useful against daptomycin resistant strains of bacteria”. In addition, the “C. diff MIC90” value in assay [3] came to 1 µg/mL. For the same molecule, the “Efs201 MIC” value in assay [5] (setting [13]) was 0.5 µg/mL. Moreover, the “Sa399 MIC” value in assay [6] amounted to 0.5 µg/mL. In addition, the “Efm384 MIC” value in assay [7] amounted to 1 µg/mL. The “Sa278 MIC” value in assay [10] turned out to be 0.50 µg/mL. In addition, in assay [8] (setting [13]), the “Sa42 MIC” value was determined as 0.25 µg/mL. Further, in assay [9], the “Efs312 MIC” value amounted to 0.5 µg/mL. Besides, the “Efm14 MIC” value in [11] was 0.5 µg/mL.

As for `CCCCCc1ccc(/C(C)=C/C(=O)N[C@@H](Cc2c[nH]c3ccccc23)C(=O)N[C@H](CC(N)=O)C(=O)N[C@@H](CC(=O)O)C(=O)N[C@@H]2C(=O)NCC(=O)N[C@@H](CCCN)C(=O)N[C@@H](CC(=O)O)C(=O)N[C@H](C)C(=O)N[C@@H](CC(=O)O)C(=O)NCC(=O)N[C@H](CO)C(=O)N[C@@H]([C@H](C)CC(=O)O)C(=O)N[C@@H](CC(=O)c3ccccc3N)C(=O)O[C@@H]2C)cc1` [Compound 49, N-{1-[(E)-3-(4-pentylphenyl)but-2-enoyl]}-L-tryptophyl-D-asparaginyl-L-α-aspartyl-L-threonylglycyl-L-ornithyl-L-α-aspartyl-D-alanyl-L-α-aspartylglycyl-D-seryl-(3R)-3-methyl-L-α-glutamyl-(αS)-α,2-diamino-γ-oxobenzenebutanoic acid (13→4)-lactone], in assay [12], the “C. diff MIC50 Nap-1” value was 0.25 µg/mL and the “C. diff MIC90 Nap-1” value was determined as 0.50 µg/mL. In addition, the “Efm384 MIC” value in assay [7] is 4 µg/mL. For the same molecule, the “Sa278 MIC” value in assay [10] stood at 1 µg/mL. Moreover, the “Efs312 MIC” value in assay [9] was 8 µg/mL and 4 µg/mL.

With `CCCCCCC1CCC(c2ccc(C(=O)N[C@@H](Cc3c[nH]c4ccccc34)C(=O)N[C@H](CC(N)=O)C(=O)N[C@@H](CC(=O)O)C(=O)N[C@@H]3C(=O)NCC(=O)N[C@@H](CCCN)C(=O)N[C@@H](CC(=O)O)C(=O)N[C@H](C)C(=O)N[C@@H](CC(=O)O)C(=O)NCC(=O)N[C@H](CO)C(=O)N[C@@H]([C@H](C)CC(=O)O)C(=O)N[C@@H](CC(=O)c4ccccc4N)C(=O)O[C@@H]3C)cc2)CC1` (stereo partly drawn) [Compound 54, N-[4-(−4-hexylcyclohexyl)benzoyl]-L-tryptophyl-D-asparaginyl-L-α-aspartyl-L-threonylglycyl-L-ornithyl-L-α-aspartyl-D-alanyl-L-α-aspartylglycyl-D-seryl-(3R)-3-methyl-L-α-glutamyl-(αS)-α,2-diamino-γ-oxobenzenebutanoic acid (13→4)-lactone], in [1], the “as active or more active than daptomycin” value is given as “as active or more active than daptomycin” and the “more active against bacteria than daptomycin” value is “more effective than daptomycin”. Moreover, in [2], the “useful” value is given as “useful against daptomycin resistant strains of bacteria”. In assay [4], the “Mean % Protection 1 Day Post Dosing” value stood at 0% and the “Mean % Protection 21 Days Post Dosing” value amounted to 0%.
